For one assay, the system named is Male Sprague-Dawley rats. Kind of assay: Rat Forced Swim Test (FST). The settings on record: for overall profile in the Forced Swim Test (conclusion in words): rat, in vivo. The class given is in vivo.
The target of a further assay is T1, human 5HT2A receptor (Homo sapiens, UniProt P28223).
T1 construct: expressed in transfected cells; host or cells: COS-7 cells, transient, vector pCEXV-3
Description: Radioligand binding at human 5HT2A receptor. The settings on record: read-out: h5HT2A Ki. How it is done:
Human 5HT2; Receptor: The coding sequence of the human 5HT2A receptor was obtained from a human brain cortex cDNA library, and cloned into the cloning site of pCEXV-3 eukaryotic expression vector. This construct was transfected into COS-7 cells by the DEAE-dextran method (Cullen, 1987). Cells were harvested after 72 hours and lysed by sonication in 5 mM Tris-HCl, 5 mM EDTA, pH 7.5. The cell lysates were subjected to centrifugation at 1000 rpm for 5 minutes at 4° C., and the supernatant was subjected to centrifugation at 30,000×g for 20 minutes at 4° C. The pellet was suspended in 50 mM Tris-HCl buffer (pH 7.7 at room temperature) containing 10 mM MgSO4, 0.5 mM EDTA, and 0.1% ascorbate. The affinity of compounds at 5HT2A receptors were determined in equilibrium competition binding assays using [^3H]ketanserin (1 nM). Nonspecific binding was defined by the addition of 10 μM mianserin. The bound radioligand was separated by filtration through GF/B filters using a cell harvester.
(§1) Binding data were analyzed using nonlinear regression and statistical techniques available in the GraphPAD Prism package (San Diego, Calif.). Enzymatic assay data were derived from a standard curve of reference compound data.

For another assay, the target named is T2, human 5HT1A receptor (Homo sapiens, UniProt P08908).
T2 construct: expressed in transfected cells; host or cells: COS-7 cells, transient, vector pCEXV-3
T2 sequence (P08908 whole entry): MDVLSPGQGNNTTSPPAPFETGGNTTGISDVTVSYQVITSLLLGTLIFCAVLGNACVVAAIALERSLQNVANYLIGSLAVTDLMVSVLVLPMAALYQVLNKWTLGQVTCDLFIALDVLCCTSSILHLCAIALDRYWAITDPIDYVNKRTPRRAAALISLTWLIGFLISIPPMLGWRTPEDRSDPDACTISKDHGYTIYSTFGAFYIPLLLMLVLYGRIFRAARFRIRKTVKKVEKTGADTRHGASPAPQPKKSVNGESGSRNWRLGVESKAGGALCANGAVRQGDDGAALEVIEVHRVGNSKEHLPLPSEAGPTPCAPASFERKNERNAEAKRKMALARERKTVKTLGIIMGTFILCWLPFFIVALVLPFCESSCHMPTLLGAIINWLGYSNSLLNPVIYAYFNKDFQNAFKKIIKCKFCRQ
Description: Radioligand binding at 5-HT1A receptor. The settings on record: read-out: h5HT1A Ki. How it is done:
5-HT1r Receptor: The cDNA corresponding to the 5-HT1A receptor open reading frames and variable non-coding 5′- and 3′-regions, was cloned into the eukaryotic expression vector pCEXV-3. These constructs were transfected transiently into COS-7 cells by the DEAE-dextran method (Cullen, 1987), and harvested after 72 hours. Radioligand binding assays were performed as described above for the 5-HT2A receptor, except that ^3H-8-OH-DPAT was used as the radioligand and nonspecific binding was determined by the addition of 10 μM mianserin.
as §1

The next assay has as its target T3, human GAL3 receptor (Homo sapiens, UniProt O60755).
T3 construct: expressed in transfected cells
T3 sequence (O60755 1-368): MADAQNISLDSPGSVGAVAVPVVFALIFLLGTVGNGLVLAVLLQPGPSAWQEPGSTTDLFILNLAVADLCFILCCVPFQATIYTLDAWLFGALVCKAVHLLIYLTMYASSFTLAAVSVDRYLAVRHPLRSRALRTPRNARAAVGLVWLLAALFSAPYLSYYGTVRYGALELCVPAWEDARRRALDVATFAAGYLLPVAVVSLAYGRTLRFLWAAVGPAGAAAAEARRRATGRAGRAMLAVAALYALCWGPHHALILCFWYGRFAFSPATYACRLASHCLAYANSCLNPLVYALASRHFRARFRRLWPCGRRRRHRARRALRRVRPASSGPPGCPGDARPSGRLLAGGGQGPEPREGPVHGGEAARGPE
Description: Radioligand binding at cloned human GAL3 receptor. The settings on record: for Ki: read-out: hGAL3 Ki. The protocol:
The present invention provides for a method of determining the binding affinity of a GAL3 antagonist, wherein the GAL3 antagonist is dissolved in a “suitable solvent”. A “suitable solvent” means one which permits the measurement of binding affinity of the GAL3 antagonist to the human GAL3 receptor at concentrations less than 1 μM, preferably less than 100 nM. Examples of solvents include, but are not limited to, DMSO, ethanol, N,N-dimethylacetamide, or water. For indolones, the preferred solvent is 3% DMSO (final concentration in the assay). For pyrimidines, the preferred solvent is 1% ethanol/0.09% polypuronic acid F-127 (final concentration in the assay). For any other type of compounds, the preferred solvent is the solvent which permits the measurement of binding affinity of a GAL3 antagonist at the lowest concentration. Once a suitable solvent is ascertained for the binding assay of the human GAL3 receptor, the same solvent is used in assays to determine the binding affinity for instance, at the GAL1 receptor.
The binding properties of the pyrimidines of the present invention were evaluated at the cloned human galanin receptors, GAL1, GAL2, and GAL3, using protocols described herein.
The binding properties of the indolones of the present invention were evaluated at the cloned human galanin receptors, GAL1, GAL2, and GAL3, using protocols described herein.
LM(tk-) cells were stably transfected with the human GAL1 or GAL3 receptor. CHO cells were stably transfected with the human GAL2 receptor.
cDNAs for the human and rat GAL1, and human and rat GAL3 receptors were transfected with a G-418 resistant gene into the mouse fibroblast LM(tk-) cell line by a calcium phosphate transfection method (Cullen, 1967). Stably transfected cells were selected with G-418. Human and rat GAL2 receptors were similarly transfected into CHO cells.
Membranes were harvested from stably transfected LM(tk-) cells. Adherent cells were washed twice in ice-cold phosphate buffered saline (138 mM NaCl, 8.1 mM Na2HPO4, 2.5 mM KCl, 1.2 mM KH2PO4, 0.9 mM CaCl2, 0.5 mM MgCl2, pH 7.4) and lysed by sonication in ice-cold sonication buffer (20 mM Tris-HCl, 5 mM EDTA, pH 7.7). Large particles and debris were cleared by low speed centrifugation (200×g, 5 min, 4° C.). Membranes were collected from the supernatant fraction by centrifugation (32,000×g, 18 min, 4° C.), washed with ice-cold hypotonic buffer, and collected again by centrifugation (32,000×g, 18 min, 4° C.). The final membrane pellet was resuspended by sonication into a small volume of ice-cold binding buffer (−1 ml for every 5 plates: 10 mM NaCl, 20 mM HEPES, 0.22 mM KH2PO4, 1.26 mM CaCl2, 0.81 mM MgSO4, pH 7.4). Protein concentration was measured by the Bradford method (Bradford, 1976) using Bio-Rad Reagent, with bovine serum albumin as a standard. Membranes were held on ice for up to one hour and used fresh, or flash frozen and stored in liquid nitrogen. Membranes were prepared similarly from CHO cells.
Galanin Receptors: Binding assays were performed according to the following published methods: human GAL3 (PCT International Publication No. WO 98/15570), human GAL1 (PCT International Publication No. WO 95/2260) human GAL2 (PCT International Publication No. WO 97/26853).
as §1

The mark [1] stands for this setting: 0.3 mg/kg p.o., single administration 1 hr before 5 min test.
The mark [2] stands for this setting: 0.3 mg/kg p.o., single administration 1 hr before 5 min test, listed as EX34.
[3] abbreviates: 1 mg/kg p.o., single administration 1 hr before 5 min test.
The mark [4] stands for this setting: 1 mg/kg p.o., single administration 1 hr before 5 min test, listed as EX34.
Setting [5] is: 3 mg/kg p.o., single administration 1 hr before 5 min test.
Setting [6] is: 3 mg/kg p.o., single administration 1 hr before 5 min test, listed as EX34.
Where [7] appears, read: 10 mg/kg p.o., single administration 1 hr before 5 min test.
Where [8] appears, read: 10 mg/kg p.o., single administration 1 hr before 5 min test, listed as EX34.
The mark [9] stands for this setting: 1 mg/kg i.p., single injection 1 h before 5 min test.
Where [10] appears, read: 3 mg/kg i.p., single injection 1 h before 5 min test.
Where [11] appears, read: 10 mg/kg i.p., single injection 1 h before 5 min test.

Read-outs that look alike come from different tables or passages of the source. Marks after values point to notes of the source that are not given here.

In general, Ki refers to a dissociation constant, usually derived from enzyme kinetics or from competition with a known ligand.

T1 sequence (P28223 whole entry): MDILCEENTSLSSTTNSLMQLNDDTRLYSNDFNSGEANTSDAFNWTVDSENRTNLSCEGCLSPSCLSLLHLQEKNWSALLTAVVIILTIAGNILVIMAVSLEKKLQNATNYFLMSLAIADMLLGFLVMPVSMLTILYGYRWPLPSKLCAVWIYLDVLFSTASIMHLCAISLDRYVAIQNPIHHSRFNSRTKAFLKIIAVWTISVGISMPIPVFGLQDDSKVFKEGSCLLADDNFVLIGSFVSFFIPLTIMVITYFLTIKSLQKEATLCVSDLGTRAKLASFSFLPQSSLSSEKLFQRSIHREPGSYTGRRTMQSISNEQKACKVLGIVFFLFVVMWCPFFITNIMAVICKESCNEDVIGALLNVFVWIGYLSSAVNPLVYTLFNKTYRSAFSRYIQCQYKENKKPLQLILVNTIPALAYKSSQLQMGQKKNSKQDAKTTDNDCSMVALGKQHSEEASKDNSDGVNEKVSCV

On to `Cc1ccc(Nc2cc(N3CCCCC3)nc(N3CCN(c4ncccc4C(F)(F)F)CC3)n2)cc1` [Example 34], for which the Climbing in the assay on Male Sprague-Dawley rats (setting [1]) is given as 3.3 ± 0.7 counts; in the assay on Male Sprague-Dawley rats (setting [3]), “significant increase in climbing”; in the assay on Male Sprague-Dawley rats (setting [4]) it was 5.0 ± 0.8^c counts; in the assay with Male Sprague-Dawley rats (setting [5]), 4.3 ± 0.8 counts; with Male Sprague-Dawley rats (setting [7]) it was “did not significantly alter swimming or climbing”; in the assay with Male Sprague-Dawley rats (setting [8]) it was 2.0 ± 0.4 counts. Also, the Diving entry in the assay on Male Sprague-Dawley rats (setting [1]) is “not significantly altered”; in the assay on Male Sprague-Dawley rats (setting [2]), 0.2 ± 0.1 counts; in the assay with Male Sprague-Dawley rats (setting [3]), “not significantly altered”; with Male Sprague-Dawley rats (setting [4]) it was 0.3 ± 0.2 counts; with Male Sprague-Dawley rats (setting [5]), “not significantly altered”; in the assay with Male Sprague-Dawley rats (setting [6]), 0.3 ± 0.3 counts. Moreover, the Diving result in the assay with Male Sprague-Dawley rats (setting [7]) is on record as “not significantly altered”; with Male Sprague-Dawley rats (setting [8]) it was 0.4 ± 0.3 counts. Besides, the Immobility entry is “significantly decreased immobility” in the assay on Male Sprague-Dawley rats (setting [1]); 45 ± 1.5^a counts in the assay with Male Sprague-Dawley rats (setting [2]); “significantly decreased immobility” in the assay on Male Sprague-Dawley rats (setting [3]); 35 ± 1.9^b counts in the assay with Male Sprague-Dawley rats (setting [4]); “significantly decreased immobility” with Male Sprague-Dawley rats (setting [5]); 35 ± 2.0^b counts in the assay with Male Sprague-Dawley rats (setting [6]). The values for the Immobility entry in the assay on Male Sprague-Dawley rats (setting [7]) and in the assay on Male Sprague-Dawley rats (setting [8]) were “did not significantly decrease in immobility” and 49 ± 1.4 counts, respectively. Moreover, the Swimming result in the assay with Male Sprague-Dawley rats (setting [1]) is reported as “significant increase in swimming behavior”; with Male Sprague-Dawley rats (setting [2]) it was 11.6 ± 0.9^d counts; in the assay with Male Sprague-Dawley rats (setting [3]), “significant increase in swimming behavior”; with Male Sprague-Dawley rats (setting [4]), 19.6 ± 1.3^d,e counts; with Male Sprague-Dawley rats (setting [5]), “significant increase in swimming behavior”; with Male Sprague-Dawley rats (setting [6]), 20.8 ± 1.3^d,e counts. Also, the Swimming entry with Male Sprague-Dawley rats (setting [7]) is recorded as “did not significantly alter swimming or climbing”; with Male Sprague-Dawley rats (setting [8]), 8.2 ± 1.2 counts. Moreover, in the assay on Male Sprague-Dawley rats, the “overall profile in the Forced Swim Test (conclusion in words)” value is given as “produces an effect in the FST that resembles that of antidepressants”. Further, the Ki on human 5HT2A receptor and at human 5HT1A receptor was > 50 µM each time. The “GAL3/GAL1 binding ratio (Ki GAL1 divided by Ki GAL3)” value on human GAL3 receptor was 39.

For `O=C1C(=Nc2cccc(C(F)(F)F)c2)c2ccccc2N1c1ccccc1` [Example 92, 1-PHENYL-3-[[3-(TRIFLUOROMETHYL)PHENYL]IMINO]-1,3-DIHYDRO-2H-INDOL-2-ONE], the Diving in the assay on Male Sprague-Dawley rats (setting [9]) came out at 0.6±0.2 counts; with Male Sprague-Dawley rats (setting [10]) it was 0.6±0.3 counts; with Male Sprague-Dawley rats (setting [11]), 0.5±0.5 counts; in the assay with Male Sprague-Dawley rats (30 mg/kg i.p., single injection 1 h before 5 min test) it was 0.2±0.2 counts. In the assay on Male Sprague-Dawley rats (setting [9]), the Immobility is 28 ± 1.0 counts. The Swimming is listed as 20±1.1 counts with Male Sprague-Dawley rats (setting [9]), 21±0.9 counts in the assay on Male Sprague-Dawley rats (setting [10]) and 18±0.9 counts in the assay on Male Sprague-Dawley rats (setting [11]). Further, the “overall profile in the Forced Swim Test (conclusion in words)” value with Male Sprague-Dawley rats is recorded as “has antidepressant-like properties”. Also, the Ki on human 5HT2A receptor was > 50 µM; on human 5HT1A receptor it was > 50 µM; at human GAL3 receptor (Table 7) it was 0.038 µM; at human GAL3 receptor (Table 9), 0.038 µM.

These data come from US20040110821A1, “GAL3 receptor antagonists for the treatment of affective disorders” (priority 2002, published 2004).
